Key:
[1] = molecular target: human full-length BTK Kinase (Homo sapiens (Human), UniProt Q06187); assay: Human BTK LanthaScreen Assay (TR-FRET); assay type: biochemical; details: 50 μM ATP, FAM-Srctide peptide substrate, read-out: BTK Inhibition IC50
Source text: Human BTK LanthaScreen Assay

[2] = molecular target: human EGFR kinase domain (Homo sapiens (Human), UniProt P00533); assay: Human EGFR LanthaScreen Selectivity Assay (TR-FRET); assay type: biochemical; details: 20 μM ATP
Description: The kinase reaction mixtures were incubated at room temperature for 60 minutes before stopping the kinase activity by the addition of 15 mM EDTA. The extent of peptide phosphorylation by EGFR was detected using a Terbium-conjugated anti-phospho-Tyrosine antibody (Tb-PT66 antibody, invitrogen # PV3557).

[3] = tested on: Human B cells; assay: Human Primary B Cell Proliferation Assay (3H-thymidine incorporation, anti-human IgM stimulated); assay type: cell-based; details: B-cell, purified human B cells, 50 μg/mL anti-human IgM F(ab')2, 72 hours
Description: Human Primary B Cell Proliferation Assay
Human B cells were purified from buffy coats using the human B cell RosetteSep kit per manufacturer's instructions. Purified cells were resuspended in RPMI-10% HIFCS, 2 mM L-glutamine, 100 U/mL penicillin, 100 μg/ml streptomycin, incubated with compounds for 1 hour at 37° C. and then stimulated with 50 μg/mL anti-human IgM F(ab′)2 for 72 hours. ^3H-thymidine was included in the culture media for the final 8-16 hours. Cells were harvested and ^3H-thymidine incorporation was measured.
Human B cell Proliferation Assay

[4] = tested on: human whole blood; assay: Human Whole Blood Histamine Assay (anti-IgE induced histamine release); assay type: cell-based; details: heparinized human whole blood, anti-human-IgE 2 μg/ml, histamine release by ELISA; read-out: HWB IC50
Description: Human Whole Blood Histamine Assay
Heparinized human whole blood (200 μl) was plated in 96-well V-bottom assay plates (VWR). Compounds diluted in 100% DMSO (1 μl) were added and incubated at 37° C. for 120 minutes. Anti-human-IgE antibody (KPL) was added to a final concentration of 2 μg/ml and assay plates incubated for 30 minutes at 37° C. Plates were spun at 2000 rpm for 8 minutes and the analyzed for histamine release by ELISA kits (Beckman Coulter).
Inhibition curves and IC50 values are determined using Excel-fit.

human full-length BTK Kinase, sequence (Q06187 whole entry): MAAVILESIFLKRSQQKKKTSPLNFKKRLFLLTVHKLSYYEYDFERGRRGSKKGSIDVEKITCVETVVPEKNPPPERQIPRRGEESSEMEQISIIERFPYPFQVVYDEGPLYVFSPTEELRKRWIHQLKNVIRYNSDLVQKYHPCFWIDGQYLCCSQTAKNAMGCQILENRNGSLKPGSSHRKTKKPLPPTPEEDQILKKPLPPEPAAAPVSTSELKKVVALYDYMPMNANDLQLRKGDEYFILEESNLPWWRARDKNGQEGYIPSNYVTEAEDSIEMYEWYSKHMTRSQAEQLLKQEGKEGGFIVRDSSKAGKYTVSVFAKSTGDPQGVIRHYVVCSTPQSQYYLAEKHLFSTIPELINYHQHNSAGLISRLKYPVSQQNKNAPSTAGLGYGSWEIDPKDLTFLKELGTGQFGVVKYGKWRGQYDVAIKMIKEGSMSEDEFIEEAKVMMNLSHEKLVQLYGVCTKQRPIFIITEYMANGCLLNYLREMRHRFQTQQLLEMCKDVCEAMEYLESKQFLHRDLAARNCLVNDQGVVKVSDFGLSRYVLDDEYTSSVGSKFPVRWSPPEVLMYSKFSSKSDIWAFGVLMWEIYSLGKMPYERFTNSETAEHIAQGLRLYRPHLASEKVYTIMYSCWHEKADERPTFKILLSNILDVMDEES
human EGFR kinase domain, sequence (P00533 712-979): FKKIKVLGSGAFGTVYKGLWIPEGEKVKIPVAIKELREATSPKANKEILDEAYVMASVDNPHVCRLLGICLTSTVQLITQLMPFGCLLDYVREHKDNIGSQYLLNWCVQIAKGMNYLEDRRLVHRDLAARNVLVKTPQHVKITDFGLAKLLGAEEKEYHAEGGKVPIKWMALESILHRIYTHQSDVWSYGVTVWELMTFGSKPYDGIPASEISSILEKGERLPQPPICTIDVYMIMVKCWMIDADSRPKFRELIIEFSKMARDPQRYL

NC(=O)c1c(-c2ccc(Oc3ccc(F)cc3F)cc2)nn([C@@H]2CCCN(C(=O)/C=C/CO)C2)c1N [Example 151, 5-am no-3-[4-(2,4-difluorophenoxy)phenyl]-1-{(3R)-1-[(2E)-4-hydroxybut-2-enoyl]-piperidin-3-yl}-1H-pyrazole-4-carboxamide] gave an IC50 [1] of 2.3 nM, an IC50 [2] of 12100 nM and an IC50 [3] of 0.22 nM. For the same molecule, the IC50 [4] was 258 nM.
Molecule C=CC(=O)N1CCC[C@@H](n2nc(-c3ccc(Oc4ccc(Cl)cn4)cc3)c(C(N)=O)c2N)C1 [Example 157, 1-[(3R)-1-acryloylpiperidin-3-yl]-5-amino-3-{4-[(5-chloropyridin-2-yl)oxy]phenyl}-1H-pyrazole-4-carboxamide] has an IC50 [1] of 1.3 nM, an IC50 [2] of 29.7 nM and an IC50 [3] of 24.2 nM. The IC50 [4] was 98.7 nM.
With C=CC(=O)N1CCC[C@@H](n2nc(-c3ccc(Oc4cccc(C(F)(F)F)n4)cc3)c(C(N)=O)c2N)C1 [Example 161, 1-[(3R)-1-acryloylpiperidin-3-yl]-5-amino-3-(4-{[6-(trifluoromethyl)pyridin-2-yl]oxy}phenyl)-1H-pyrazole-4-carboxamide] the IC50 [1] was 1.2 nM, the IC50 [2] was 89.8 nM and the IC50 [3] was 3 nM. For the same molecule, the IC50 [4] was 52.7 nM.
Work on NC(=O)c1c(-c2ccc(Oc3cccc(C(F)(F)F)n3)cc2)nn([C@@H]2CCCN(C(=O)/C=C/CO)C2)c1N [Example 162, 5-amino-1-{(3R)-1-[(2E)-4-hydroxybut-2-enoyl]piperidin-3-yl}-3-(4-{[6-(trifluoromethyl)pyridin-2-yl]oxy}phenyl)-1H-pyrazole-4-carboxamide] yielded an IC50 [1] of 9.8 nM, an IC50 [2] of 14100 nM and an IC50 [3] of 103 nM. The IC50 [4] was 343 nM.

From patent US10266513B2 (Pfizer Inc., priority 2012, dated 2019)
